Assay results from patent US8940756B2, “Dihydronaphthyridines and related compounds useful as kinase inhibitors for the treatment of proliferative diseases” (Deciphera Pharmaceuticals, Inc., priority 2012, dated 2015).

Legend:
[1] = target: Phospho-KIT (Tyr719) in GIST430 cells (Homo sapiens, UniProt P10721); assay: GIST430 KIT Western Blot; format: cell-based; conditions: 4 hours, read-out: pKIT suppression by western blot analysi GIST430
Procedure: (§1) GIST48, GIST430, and GIST882 cells were obtained from J. Fletcher (Brigham and Women's Hospital, Boston, Mass.). GIST T1 cells were obtained from B. Rubin (Cleveland Clinic, Cleveland, Ohio) and Professor Takahiro Taguchi (Kochi Medical School, Nankoku, Kochi, Japan). […] GIST430 cells were grown in Ham's F10 medium supplemented with 15% characterized fetal bovine serum (Invitrogen, Carlsbad, Calif.), 30 mg/L bovine pituitary extract (BD Biosciences, San Jose, Calif.), 0.5% Mito+ serum extender (BD Biosciences, San Jose, Calif.), 1 unit/mL penicillin G, 1 μg/ml streptomycin, and 0.29 mg/mL L-glutamine at 37° C., 5% CO2, 95% humidity. GIST T1 cells were grown in DMEM medium supplemented with 10% characterized fetal bovine serum (Invitrogen, Carlsbad, Calif.), 1 unit/mL penicillin G, 1 ng/ml streptomycin, and 0.29 mg/mL L-glutamine at 37° C., 5% CO2, and 95% humidity. Cells were allowed to expand until reaching 70-95% confluence at which point they were subcultured or harvested for assay use.
(§2) One hundred fifty thousand cells were added per well in a 24-well tissue-culture treated plate. Cells were then incubated overnight at 37° C., 5% CO2, 95% humidity. Medium was aspirated, cells were washed with PBS, and serum-free Ham's F10 medium was added. A serial dilution of test compound was added to plates containing cells and plates were incubated for 4 hours at 37° C., 5% CO2, 95% humidity. Cells were washed with PBS, then lysed. Cell lysates were separated by SDS-PAGE and transferred to PVDF. Phospho-KIT (Tyr719) was detected using an antibody from Cell Signaling Technology (Beverly, Mass.), ECL Plus detection reagent (GE Healthcare, Piscataway, N.J.) and a Molecular Devices Storm 840 phosphorimager in fluorescence mode. Blots were stripped and probed for total KIT using an antibody from Santa Cruz Biotech (Santa Cruz, Calif.). IC50 values were calculated using Prism software (Graphpad, San Diego, Calif.).

[2] = target: Phospho-KIT (Tyr719) in GIST48 cells (Homo sapiens, UniProt P10721); assay: GIST48 KIT Western Blot; format: cell-based; conditions: 4 hours, read-out: pKIT suppression by western blot analysi GIST48
Chain of Phospho-KIT (Tyr719) in GIST48 cells (P10721 whole entry V560D/D820A, form open): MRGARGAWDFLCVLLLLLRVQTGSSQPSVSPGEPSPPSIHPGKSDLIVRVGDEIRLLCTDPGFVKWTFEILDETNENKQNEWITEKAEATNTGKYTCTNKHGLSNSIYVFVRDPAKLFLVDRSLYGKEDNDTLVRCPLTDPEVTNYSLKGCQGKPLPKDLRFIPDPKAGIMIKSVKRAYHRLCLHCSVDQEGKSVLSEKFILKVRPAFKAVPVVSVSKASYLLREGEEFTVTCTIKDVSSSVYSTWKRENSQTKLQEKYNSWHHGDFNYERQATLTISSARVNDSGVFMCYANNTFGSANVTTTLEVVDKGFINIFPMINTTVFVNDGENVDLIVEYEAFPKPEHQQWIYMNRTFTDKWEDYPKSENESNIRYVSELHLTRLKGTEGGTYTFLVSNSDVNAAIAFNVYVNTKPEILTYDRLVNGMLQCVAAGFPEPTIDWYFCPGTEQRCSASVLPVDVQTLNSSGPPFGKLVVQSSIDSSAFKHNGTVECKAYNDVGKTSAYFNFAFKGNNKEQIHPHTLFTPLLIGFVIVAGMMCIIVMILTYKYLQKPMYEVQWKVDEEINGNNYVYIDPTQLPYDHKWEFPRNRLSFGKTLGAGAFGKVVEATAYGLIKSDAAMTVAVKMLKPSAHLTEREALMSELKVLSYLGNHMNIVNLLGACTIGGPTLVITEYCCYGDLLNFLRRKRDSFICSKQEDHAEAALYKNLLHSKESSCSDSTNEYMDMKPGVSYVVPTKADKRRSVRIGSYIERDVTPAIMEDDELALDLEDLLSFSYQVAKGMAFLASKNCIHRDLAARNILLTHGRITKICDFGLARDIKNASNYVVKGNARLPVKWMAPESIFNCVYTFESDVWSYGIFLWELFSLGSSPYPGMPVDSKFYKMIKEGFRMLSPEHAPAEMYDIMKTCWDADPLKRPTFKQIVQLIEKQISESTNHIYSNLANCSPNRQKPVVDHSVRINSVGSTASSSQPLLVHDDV
Procedure: as §1
as §2, with “Two” for “One”, “RPMI1640” for “Ham's F10”

Chain of Phospho-KIT (Tyr719) in GIST430 cells (P10721 with tags, fused parts or gaps DEL560-576/V654A, form open): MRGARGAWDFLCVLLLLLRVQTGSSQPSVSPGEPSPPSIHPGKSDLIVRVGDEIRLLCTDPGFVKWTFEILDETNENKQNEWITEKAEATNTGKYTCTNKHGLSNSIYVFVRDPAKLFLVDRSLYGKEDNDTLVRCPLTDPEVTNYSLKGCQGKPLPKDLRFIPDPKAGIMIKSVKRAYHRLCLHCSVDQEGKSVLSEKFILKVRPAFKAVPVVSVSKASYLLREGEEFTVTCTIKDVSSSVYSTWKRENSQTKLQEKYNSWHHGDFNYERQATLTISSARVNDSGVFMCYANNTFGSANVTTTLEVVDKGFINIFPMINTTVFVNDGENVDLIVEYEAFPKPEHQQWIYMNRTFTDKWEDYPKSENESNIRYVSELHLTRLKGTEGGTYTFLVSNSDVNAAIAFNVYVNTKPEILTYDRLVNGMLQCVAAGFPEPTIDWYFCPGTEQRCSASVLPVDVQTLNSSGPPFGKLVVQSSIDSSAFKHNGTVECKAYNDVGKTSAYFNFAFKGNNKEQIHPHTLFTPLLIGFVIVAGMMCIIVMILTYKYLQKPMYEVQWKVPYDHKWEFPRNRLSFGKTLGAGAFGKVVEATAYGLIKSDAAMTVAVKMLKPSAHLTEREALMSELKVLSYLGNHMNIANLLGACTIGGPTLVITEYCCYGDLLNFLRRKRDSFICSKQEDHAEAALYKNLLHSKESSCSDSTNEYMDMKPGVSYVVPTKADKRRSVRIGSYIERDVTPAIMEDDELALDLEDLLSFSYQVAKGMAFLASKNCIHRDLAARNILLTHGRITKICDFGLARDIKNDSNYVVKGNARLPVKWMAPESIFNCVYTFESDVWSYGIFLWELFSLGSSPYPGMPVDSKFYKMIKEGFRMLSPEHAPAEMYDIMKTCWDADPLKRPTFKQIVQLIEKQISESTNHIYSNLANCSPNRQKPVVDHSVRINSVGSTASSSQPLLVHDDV

Molecule `CCn1c(=O)c(-c2cc(NC(=O)Nc3ccccc3)c(F)cc2Br)cc2cnc(N)cc21` [Example 57, 1-(5-(7-amino-1-ethyl-2-oxo-1,2-dihydro-1,6-naphthyridin-3-yl)-4-bromo-2-fluorophenyl)-3-phenylurea] has an IC50 [1] of 10 to 100 nM and an IC50 [2] of 100 to 1000 nM.

Molecule `CCn1c(=O)c(-c2cc(NC(=O)Nc3cccc(F)c3)c(F)cc2C)cc2cnc(N)cc21` [Example 58, 1-(5-(7-amino-1-ethyl-2-oxo-1,2-dihydro-1,6-naphthyridin-3-yl)-2-fluoro-4-methylphenyl)-3-(3-fluorophenyl)urea] has an IC50 [1] of 10 to 100 nM and an IC50 [2] of 100 to 1000 nM.

With `CCn1c(=O)c(-c2cc(NC(=O)Nc3csc4ccccc34)c(F)cc2C)cc2cnc(NC)cc21` [Example 59, 1-(benzo[b]thiophen-3-yl)-3-(5-(1-ethyl-7-(methylamino)-2-oxo-1,2-dihydro-1,6-naphthyridin-3-yl)-2-fluoro-4-methylphenyl)urea] the IC50 [1] was 10 to 100 nM and the IC50 [2] was 10 to 100 nM.

For `CCn1c(=O)c(-c2cc(NC(=O)Nc3cc(F)cc(F)c3)c(F)cc2C)cc2cnc(NC)cc21` [Example 60, 1-(3,5-difluorophenyl)-3-(5-(1-ethyl-7-(methylamino)-2-oxo-1,2-dihydro-1,6-naphthyridin-3-yl)-2-fluoro-4-methylphenyl)urea], the IC50 [1] was 10 to 100 nM and the IC50 [2] was > 1000 nM.

For `CCn1c(=O)c(-c2cc(NC(=O)Nc3cc(F)ccc3F)c(F)cc2C)cc2cnc(NC)cc21` [Example 61, 1-(2,5-difluorophenyl)-3-(5-(1-ethyl-7-(methylamino)-2-oxo-1,2-dihydro-1,6-naphthyridin-3-yl)-2-fluoro-4-methylphenyl)urea], the IC50 [1] was 10 to 100 nM and the IC50 [2] was > 1000 nM.

In the case of `CCn1c(=O)c(-c2cc(NC(=O)Nc3cc(F)cc(F)c3)c(F)cc2F)cc2cnc(NC)cc21` [Example 63], the IC50 [1] is reported as 10 to 100 nM and the IC50 [2] is reported as 100 to 1000 nM.

With `CCn1c(=O)c(-c2cc(NC(=O)Nc3cc(F)cc(F)c3)c(F)cc2Cl)cc2cnc(NC(C)=O)cc21` [Example 67, N-(3-(2-chloro-5-(3-(3,5-difluorophenyl)ureido)-4-fluorophenyl)-1-ethyl-2-oxo-1,2-dihydro-1,6-naphthyridin-7-yl)acetamide] the IC50 [1] was < 10 nM and the IC50 [2] was < 10 nM.

With `CCn1c(=O)c(-c2cc(NC(=O)Nc3cc(F)ccc3F)c(F)cc2Cl)cc2cnc(NC)cc21` [Example 68, 1-(4-chloro-5-(1-ethyl-7-(methylamino)-2-oxo-1,2-dihydro-1,6-naphthyridin-3-yl)-2-fluorophenyl)-3-(2,5-difluorophenyl)urea] the IC50 [1] was 10 to 100 nM and the IC50 [2] was 100 to 1000 nM.

With `CCn1c(=O)c(-c2cc(NC(=O)Nc3ccccc3)c(F)cc2Cl)cc2cnc(NC(=O)N(C)C)cc21` [Example 70, 3-(3-(2-chloro-4-fluoro-5-(3-phenylureido)phenyl)-1-ethyl-2-oxo-1,2-dihydro-1,6-naphthyridin-7-yl)-1,1-dimethylurea] the IC50 [1] was < 10 nM and the IC50 [2] was 10 to 100 nM.

In the case of `CCn1c(=O)c(-c2cc(NC(=O)Nc3ccccc3)c(F)cc2Cl)cc2cnc(NC(=O)OC)cc21` [Example 73, methyl (3-(2-chloro-4-fluoro-5-(3-phenylureido)phenyl)-1-ethyl-2-oxo-1,2-dihydro-1,6-naphthyridin-7-yl)carbamate], the IC50 [1] is reported as 10 to 100 nM and the IC50 [2] is reported as 10 to 100 nM.

Molecule `CNc1cc2c(cn1)cc(-c1cc(NC(=O)Nc3cccc(F)c3)c(F)cc1Cl)c(=O)n2C(C)C` [Example 77, 1-(4-chloro-2-fluoro-5-(1-isopropyl-7-(methylamino)-2-oxo-1,2-dihydro-1,6-naphthyridin-3-yl)phenyl)-3-(3-fluorophenyl)urea] has an IC50 [1] of 10 to 100 nM and an IC50 [2] of 10 to 100 nM.

For `CCn1c(=O)c(-c2cc(NC(=O)Nc3ccccc3)c(F)cc2Cl)cc2cnc(NC(=O)N3CC(O)C3)cc21` [Example 81, N-(3-(2-chloro-4-fluoro-5-(3-phenylureido)phenyl)-1-ethyl-2-oxo-1,2-dihydro-1,6-naphthyridin-7-yl)-3-hydroxyazetidine-1-carboxamide], the IC50 [1] was 10 to 100 nM and the IC50 [2] was 10 to 100 nM.

Molecule `CCn1c(=O)c(-c2cc(NC(=O)Nc3ccccc3)c(F)cc2Cl)cc2cnc(NC(=O)N3CC[C@@H](N(C)C)C3)cc21` [Example 84, (R)—N-(3-(2-chloro-4-fluoro-5-(3-phenylureido)phenyl)-1-ethyl-2-oxo-1,2-dihydro-1,6-naphthyridin-7-yl)-3-(dimethylamino)pyrrolidine-1-carboxamide] has an IC50 [1] of 10 to 100 nM and an IC50 [2] of 10 to 100 nM.

With `CC(=O)Nc1cc2c(cn1)cc(-c1cc(NC(=O)Nc3ccccc3)c(F)cc1Cl)c(=O)n2C(C)C` [Example 86, N-(3-(2-chloro-4-fluoro-5-(3-phenylureido)phenyl)-1-isopropyl-2-oxo-1,2-dihydro-1,6-naphthyridin-7-yl)acetamide] the IC50 [1] was 10 to 100 nM and the IC50 [2] was < 10 nM.

`CCn1c(=O)c(-c2cc(NC(=O)Nc3ccc(F)c(CN4CCN(C)CC4)c3)c(F)cc2Cl)cc2cnc(NC)cc21` [Example 87] showed an IC50 [1] of 100 to 1000 nM and an IC50 [2] of 10 to 100 nM.

In the case of `CCn1c(=O)c(-c2cc(NC(=O)Nc3ccccc3)c(F)cc2C)cc2cnc(NC(=O)N(C)C)cc21` [Example 101, 3-(1-ethyl-3-(4-fluoro-2-methyl-5-(3-phenylureido)phenyl)-2-oxo-1,2-dihydro-1,6-naphthyridin-7-yl)-1,1-dimethylurea], the IC50 [1] is reported as 10 to 100 nM and the IC50 [2] is reported as > 1000 nM.

`CCn1c(=O)c(-c2cc(NC(=O)Nc3ccccc3)c(F)cc2Cl)cc2cnc(NC(=O)N3CC(N(C)C)C3)cc21` [Example 102, N-(3-(2-chloro-4-fluoro-5-(3-phenylureido)phenyl)-1-ethyl-2-oxo-1,2-dihydro-1,6-naphthyridin-7-yl)-3-(dimethylamino)azetidine-1-carboxamide] showed an IC50 [1] of 10 to 100 nM and an IC50 [2] of 10 to 100 nM.

In the case of `CCn1c(=O)c(-c2cc(NC(=O)Nc3cc(F)cc(F)c3)c(F)cc2C)cc2cnc(NC(=O)N(C)C)cc21` [Example 108, 3-(3-(5-(3-(3,5-difluorophenyl)ureido)-4-fluoro-2-methylphenyl)-1-ethyl-2-oxo-1,2-dihydro-1,6-naphthyridin-7-yl)-1,1-dimethylurea], the IC50 [1] is reported as 10 to 100 nM and the IC50 [2] is reported as 100 to 1000 nM.
